Patent US7906510B2, “Amide derivative and pharmaceutical composition containing the same” (Dainippon Sumito Pharma Co., Ltd., priority 2008, dated 2011)
Counter-ions that a name gives are not always drawn. Like-named read-outs stand apart in the source and are kept apart here.

Legend:
5-HT4 receptor = molecular target: T1, 5-HT4 receptor (Cavia porcellus, UniProt O70528); assay: Serotonin 4 (5-HT4) receptor binding assay; design: species or system guinea pig
T1 construct: the mixture was suspended to give receptor membrane preparations; from tissue; host or cells: guinea pig (Slc-Hartley) brain striatum membranes
Description: 5-HT4 receptor binding assay and preparations of receptor membrane preparations were carried out according to a method of Grossman et al. [see British J. Pharmacol., (1993) 109, 618].
Slc-Hartley guinea pigs (body weight 300 to 400 g) were decapitated to remove brain rapidly, and striatum was isolated. To the obtained tissues were added fifteenfold of Hepes buffer (50 mM, pH7.4, 4° C.), and the mixture was homogenized by Teflon® homogenizer and centrifuged at 48,000×g (4° C.) for 15 minutes. To the resulting precipitate was added Hepes buffer (1 ml) to 30 mg by wet weight of tissues, and the mixture was suspended to give receptor membrane preparations.
0.1 nM [^3H]-GR113808 {chemical name: [1-[2-(methylsulfonylamino)ethyl]-4-piperidinyl]methyl 1-methylindole-3-carboxylate}, receptor membrane preparations, and Hepes buffer (50 mM, pH7.4, 4° C., 1 ml) containing test compounds or 30 μM serotonin were placed in an assay tube, and incubated at 37° C. for 30 minutes. On quenching the reaction, the mixture was rapidly filtered on whatman GF/B filter, which was presoaked in 0.1% polyethyleneimine for 1 hour, by using Brandel cell Harvester, and washed with ice-cooled 50 mM Tris-HCl (pH7.7, 4 ml) three times. To the filter after filtration was added ACS II scintillator, and then a radioactivity was determined by a liquid scintillation counter.
50% inhibition concentrations (IC50) were determined from inhibition rates of test compounds to specific bindings which were obtained by subtracting nonspecific bindings from total binding amounts of [^3H]-GR113808.

Male Slc-ddy mice = assay: Mouse defecation assay; type: in vivo; design: key: −: No Effect; +: Moderately Improved (p<0.05); ++: Significantly Improved (p<0.01); details: 3 mg/kg orally; stool weight 30, 60 and 120 minutes after administration; Dunnett assay vs control
Description: Male Slc-ddy mice (body weight 25 to 30 g) were used and allowed to ingest food and water ad libitum until commencement of experiments.
A group of 25 mice was divided into 5 groups, which 5 mice each per group were respectively transferred to fasting cages to adjust to new environments for about 1 hour. Then, each mouse was orally administered 3 mg/kg suspension of a test compound in 0.5% tragacanth solution to measure each stool weight of each group 30, 60, and 120 minutes after oral administration.
Efficacies were evaluated by Dunnett assay between test compounds and control.

[1] = inhibition of specific binding of 0.1 nM [3H]-GR113808, guinea pig striatum membrane preparations, 37° C., 30 minutes, read-out: IC50

T1 sequence (O70528 whole entry): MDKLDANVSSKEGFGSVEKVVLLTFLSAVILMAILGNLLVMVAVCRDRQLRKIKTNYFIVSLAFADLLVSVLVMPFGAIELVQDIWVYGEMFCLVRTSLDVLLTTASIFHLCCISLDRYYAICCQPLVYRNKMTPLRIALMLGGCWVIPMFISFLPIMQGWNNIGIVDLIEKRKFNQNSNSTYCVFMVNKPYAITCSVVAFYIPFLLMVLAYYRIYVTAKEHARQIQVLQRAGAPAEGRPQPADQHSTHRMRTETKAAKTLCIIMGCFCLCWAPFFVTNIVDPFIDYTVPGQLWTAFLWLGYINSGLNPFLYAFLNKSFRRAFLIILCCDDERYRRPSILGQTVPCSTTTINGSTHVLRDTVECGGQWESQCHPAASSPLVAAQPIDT

Row | Structure (SMILES) | IC50 (5-HT4 receptor; [1]) [nM] | Effect (Male Slc-ddy mice) | IC50 (5-HT4 receptor) [nM]
1 | CCOc1cc(N)c(Cl)cc1C(=O)NC[C@H]1CN(CC2CCN(C(=O)NC)CC2)CCO1 [Example 47] | 8.04 |  | 
2 | COc1cc(N)c(Cl)cc1C(=O)NC[C@H]1CN(CC2CCN(C(=O)Nc3ccccc3)CC2)CCO1 [Example 52] | 1.94 | − | 
3 | COc1ccccc1NC(=O)N1CCC(CN2CCO[C@@H](CNC(=O)c3cc(Cl)c(N)cc3OC)C2)CC1 [Example 53] | 1.46 |  | 
4 | COc1cc(N)c(Cl)cc1C(=O)NC[C@H]1CN(CC2CCN(C(=O)Nc3cccc(C(F)(F)F)c3)CC2)CCO1 [Example 54] | 5.91 | + | 
5 | COc1cc(N)c(Cl)cc1C(=O)NC[C@H]1CN(CC2CCN(C(=O)Nc3cccc(C(C)=O)c3)CC2)CCO1 [Example 56] | 2.9 |  | 
6 | COc1cc(N)c(Cl)cc1C(=O)NC[C@H]1CN(CC2CCN(C(=O)Nc3cc(C)cc(C)c3)CC2)CCO1 [Example 57] | 1.82 |  | 
7 | COc1cc(N)c(Cl)cc1C(=O)NC[C@H]1CN(CC2CCN(C(=O)Nc3ccc(Cl)c(Cl)c3)CC2)CCO1 [Example 58] | 1.97 | + | 
8 | COc1cc(N)c(Cl)cc1C(=O)NC[C@H]1CN(CC2CCN(C(=O)NCc3ccccc3)CC2)CCO1 [Example 59] | 2.83 |  | 
9 | COc1cc(N)c(Cl)cc1C(=O)NC[C@H]1CN(CC2CCN(C(=O)NCc3ccccc3C)CC2)CCO1 [Example 60] | 1.86 |  | 
10 | COc1ccc(CNC(=O)N2CCC(CN3CCO[C@@H](CNC(=O)c4cc(Cl)c(N)cc4OC)C3)CC2)cc1 [Example 61] | 3.7 |  | 
11 | COc1cc(N)c(Cl)cc1C(=O)NC[C@H]1CN(CC2CCN(C(=O)NCc3ccc(Cl)cc3Cl)CC2)CCO1 [Example 62] | 2.51 |  | 
12 | COc1cc(N)c(Cl)cc1C(=O)NC[C@H]1CN(CC2CCN(C(=O)NCCc3ccccc3)CC2)CCO1 [Example 63] | 8.6 |  | 
13 | COc1cc(N)c(Cl)cc1C(=O)NC[C@H]1CN(CC2CCN(C(=O)N(C(C)C)C(C)C)CC2)CCO1.Cl [Example 88] |  | ++ | 
14 | COc1cc(N)c(Cl)cc1C(=O)NC[C@H]1CN(CC2CCN(C(=O)N3CCCC3)CC2)CCO1 [Example 89] | 7.33 | + | 
15 | CCOc1cc(N)c(Cl)cc1C(=O)NCC1CN(CC2CCN(C(=O)N3CCCC3)CC2)CCO1 (stereo not shown) [Example 90, 4-amino-5-chloro-2-ethoxy-N-[{4-[(1-(1-pyrrolidinecarbonyl)-4-piperidinyl)-methyl]-2-morpholinyl}methyl]benzamide 1.5 fumarate] | 6.98 |  | 
16 | CCCOC(=O)N1CCC(CN2CCO[C@@H](CNC(=O)c3cc(Cl)c(N)cc3OC)C2)CC1 [Example 98] | 9.62 |  | 
17 | COc1cc(N)c(Cl)cc1C(=O)NC[C@H]1CN(CC2CCN(C(=O)OCC(C)C)CC2)CCO1 [Example 102] | 6.79 |  | 
18 | COc1cc(N)c(Cl)cc1C(=O)NC[C@H]1CN(CC2CCN(C(=O)Oc3ccccc3)CC2)CCO1 [Example 106] |  |  | 6.12
19 | COc1ccccc1OC(=O)N1CCC(CN2CCO[C@@H](CNC(=O)c3cc(Cl)c(N)cc3OC)C2)CC1 [Example 107] |  |  | 3.43
20 | CCOc1cc(N)c(Cl)cc1C(=O)NCC1CN(CC2CCN(C(=O)c3ccccc3)CC2)CCO1 (stereo not shown) [Example 112] | 3.01 |  | 
21 | COc1cc(N)c(Cl)cc1C(=O)NC[C@H]1CN(CC2CCN(C(=O)c3cccc(F)c3)CC2)CCO1 [Example 113] | 2.23 |  | 

The next lines start with results.

Row | IC50 (5-HT4 receptor; [1]) [nM] | Structure (SMILES) | Effect (Male Slc-ddy mice) | IC50 (5-HT4 receptor) [nM]
22 | 7.9 | C=CCCCCC(=O)N1CCC(CN2CCOC(CNC(=O)c3cc(Cl)c(N)cc3OCC)C2)CC1 (racemic) [Example 162] |  | 
23 | 6.58 | C=CC=CC(=O)N1CCC(CN2CCOC(CNC(=O)c3cc(Cl)c(N)cc3OCC)C2)CC1 (racemic) [Example 163] |  | 
24 | 7.5 | C=CCCC=CC(=O)N1CCC(CN2CCOC(CNC(=O)c3cc(Cl)c(N)cc3OCC)C2)CC1 (racemic) [Example 164] |  | 
25 | 2.22 | CCOc1cc(N)c(Cl)cc1C(=O)NCC1CN(CC2CCN(C(=O)c3cccc(F)c3)CC2)CCO1 (stereo not shown) [Example 114] |  | 
26 | 0.04 | COc1cc(N)c(Cl)cc1C(=O)NC[C@H]1CN(CC2CCN(C(=O)c3cccc(Br)c3)CC2)CCO1 [Example 117] |  | 
27 | 1.7 | COc1cc(N)c(Cl)cc1C(=O)NC[C@H]1CN(CC2CCN(C(=O)c3ccccc3C)CC2)CCO1 [Example 118] |  | 
28 | 2.63 | COc1cc(N)c(Cl)cc1C(=O)NC[C@H]1CN(CC2CCN(C(=O)c3ccc(C)cc3)CC2)CCO1 [Example 120] |  | 
29 | 2.11 | COc1cc(N)c(Cl)cc1C(=O)NC[C@H]1CN(CC2CCN(C(=O)c3ccc(C(C)(C)C)cc3)CC2)CCO1 [Example 123] |  | 
30 | 2.32 | CCOc1cc(N)c(Cl)cc1C(=O)NC[C@H]1CN(CC2CCN(C(=O)c3ccc(OC)cc3)CC2)CCO1 [Example 126] |  | 
31 | 6.96 | COc1cc(N)c(Cl)cc1C(=O)NC[C@H]1CN(CC2CCN(C(=O)c3ccco3)CC2)CCO1 [Example 131] |  | 
32 | 1.5 | Nc1c(Cl)cc(C(=O)NCC2CN(CC3CCN(C(=O)N4CCCC4)CC3)CCO2)c2c1CCO2 (stereo not shown) [Example 134] |  | 
33 | 4.26 | CN(C)C(=O)N1CCC(CN2CCO[C@@H](CNC(=O)c3cc(Cl)c(N)c4c3OCC4)C2)CC1 [Example 136] |  | 
34 | 2.84 | CS(=O)(=O)N1CCC(CN2CCOC(CNC(=O)c3cc(Cl)c(N)c4c3OCC4)C2)CC1 (stereo not shown) [Example 140] |  | 
35 | 6.36 | CCOc1cc(N)c(Cl)cc1C(=O)NC[C@H]1CN(CC2CCN(C(=O)c3ccccc3OC(C)=O)CC2)CCO1 [Example 167] |  | 
36 | 5.17 | COc1cc(N)c(Cl)cc1C(=O)NC[C@H]1CN(CC2CCN(C(=O)c3cccc(OC(C)=O)c3)CC2)CCO1 [Example 168] |  | 
37 | 5.65 | COc1cc(N)c(Cl)cc1C(=O)NC[C@H]1CN(CC2CCN(C(=O)c3ccccc3Oc3ccccc3)CC2)CCO1 [Example 170] |  | 
38 | 2.16 | COc1cc(N)c(Cl)cc1C(=O)NC[C@H]1CN(CC2CCN(C(=O)c3cccc(N(C)C)c3)CC2)CCO1 [Example 171] |  | 
39 | 0.87 | COc1cc(N)c(Cl)cc1C(=O)NC[C@H]1CN(CC2CCN(C(=O)c3ccc(N(C)C)cc3)CC2)CCO1 [Example 172] |  | 
40 | 8.52 | COC(=O)c1ccc(C(=O)N2CCC(CN3CCO[C@@H](CNC(=O)c4cc(Cl)c(N)cc4OC)C3)CC2)cc1 [Example 174] |  | 
41 | 6.13 | COc1cc(N)c(Cl)cc1C(=O)NC[C@H]1CN(CC2CCN(C(=O)c3ccc(-c4ccccc4)cc3)CC2)CCO1 [Example 175] |  | 
42 | 0.72 | COc1cc(N)c(Cl)cc1C(=O)NC[C@H]1CN(CC2CCN(C(=O)c3ccc(N)c(Cl)c3)CC2)CCO1 [Example 176] |  | 
43 | 1.62 | COc1cc(N)c(Cl)cc1C(=O)NC[C@H]1CN(CC2CCN(C(=O)c3cccc4c3OCC4)CC2)CCO1 [Example 177] |  | 
44 | 1.24 | COc1cc(N)c(Cl)cc1C(=O)NC[C@H]1CN(CC2CCN(C(=O)c3ccc(C)s3)CC2)CCO1 [Example 178] |  | 
45 | 10.1 | COc1cc(N)c(Cl)cc1C(=O)NC[C@H]1CN(CC2CCN(C(=O)CC3CCNCC3)CC2)CCO1 [Example 194] |  | 
46 | 4.45 | COc1cc(N)c(Cl)cc1C(=O)NC[C@H]1CN(CC2CCN(C(=O)c3cccc(O)c3)CC2)CCO1 [Example 201] |  | 
47 | 4.52 | COc1cc(N)c(Cl)cc1C(=O)NC[C@H]1CN(CC2CCN(C(=O)c3ccc(O)cc3)CC2)CCO1 [Example 202] |  | 
48 | 10.6 | CCOc1cc(N)c(Cl)cc1C(=O)NC[C@H]1CN(CC2CCN(C(=O)n3ccnc3)CC2)CCO1 [Example 206, (S)-4-amino-5-chloro-2-ethoxy-N-[{4-[(1-imidazolecarbonyl-4-piperidinyl)-methyl]-2-morpholinyl}methyl]benzamide] |  | 
